Patent US11065214B1, “Combination therapies with disulfiram” (Spring Discovery, Inc., priority 2020, dated 2021)

Experiments:
severe sepsis = settings: patients with severe sepsis, placebo cohort 24%; cited from earlier work
brain blood flow = settings: 450 mg/kg during a 15-minute period, after simvastatin 2 mg/kg subcutaneously daily for 14 days, SV-129 mice; cited from earlier work
[1] = doses up to 750 mg/kg bw; cited from earlier work
[2] = rats, doses up to 2000 mg/kg bw; cited from earlier work
influenza virus H1N1 = settings: cited from earlier work
[3] = target: transient receptor potential melastatin 8 (TRPM8) (Homo sapiens, UniProt Q7Z2W7); settings: increase of [Ca2+]i; cited from earlier work
transient receptor potential melastatin 8 (TRPM8), sequence (Q7Z2W7 whole entry, species assumed): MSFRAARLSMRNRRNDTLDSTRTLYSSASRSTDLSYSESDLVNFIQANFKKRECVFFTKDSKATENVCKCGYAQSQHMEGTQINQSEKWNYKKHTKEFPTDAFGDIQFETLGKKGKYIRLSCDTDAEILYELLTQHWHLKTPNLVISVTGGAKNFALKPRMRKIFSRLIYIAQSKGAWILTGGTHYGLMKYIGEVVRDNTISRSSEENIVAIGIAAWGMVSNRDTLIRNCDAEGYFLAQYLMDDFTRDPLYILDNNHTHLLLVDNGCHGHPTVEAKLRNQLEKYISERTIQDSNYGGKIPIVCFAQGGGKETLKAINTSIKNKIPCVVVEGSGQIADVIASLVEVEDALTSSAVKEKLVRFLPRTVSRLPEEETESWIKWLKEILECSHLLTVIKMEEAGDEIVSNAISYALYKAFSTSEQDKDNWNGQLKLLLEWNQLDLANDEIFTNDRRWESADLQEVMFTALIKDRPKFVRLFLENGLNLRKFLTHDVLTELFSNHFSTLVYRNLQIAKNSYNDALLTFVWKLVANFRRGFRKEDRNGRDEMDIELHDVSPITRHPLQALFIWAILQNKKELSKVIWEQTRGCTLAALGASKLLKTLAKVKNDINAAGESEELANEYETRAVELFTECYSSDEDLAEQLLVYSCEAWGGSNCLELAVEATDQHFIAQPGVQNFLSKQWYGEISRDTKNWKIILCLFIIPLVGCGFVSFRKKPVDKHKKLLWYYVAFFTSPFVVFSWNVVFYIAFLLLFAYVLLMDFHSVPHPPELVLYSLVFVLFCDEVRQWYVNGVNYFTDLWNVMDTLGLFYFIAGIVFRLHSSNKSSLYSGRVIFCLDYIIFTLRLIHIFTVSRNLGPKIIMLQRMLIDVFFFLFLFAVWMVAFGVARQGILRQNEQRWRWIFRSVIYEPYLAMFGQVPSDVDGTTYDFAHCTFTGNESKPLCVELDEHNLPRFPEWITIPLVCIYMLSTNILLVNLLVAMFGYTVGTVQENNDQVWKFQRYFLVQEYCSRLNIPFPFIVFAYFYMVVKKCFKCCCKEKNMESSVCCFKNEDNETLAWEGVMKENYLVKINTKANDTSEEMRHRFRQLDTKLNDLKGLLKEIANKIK

SAMP8 mice = settings: intragastric, 4-month-old SAMP8 mice, 2 months; cited from earlier work
[4] = static toxicity tests; cited from earlier work
[5] = target: cyclo-oxygenase-2 (COX-2) (Homo sapiens, UniProt P35354); settings: independently of NF-κB activation; cited from earlier work
cyclo-oxygenase-2 (COX-2), sequence (P35354 18-604, species assumed): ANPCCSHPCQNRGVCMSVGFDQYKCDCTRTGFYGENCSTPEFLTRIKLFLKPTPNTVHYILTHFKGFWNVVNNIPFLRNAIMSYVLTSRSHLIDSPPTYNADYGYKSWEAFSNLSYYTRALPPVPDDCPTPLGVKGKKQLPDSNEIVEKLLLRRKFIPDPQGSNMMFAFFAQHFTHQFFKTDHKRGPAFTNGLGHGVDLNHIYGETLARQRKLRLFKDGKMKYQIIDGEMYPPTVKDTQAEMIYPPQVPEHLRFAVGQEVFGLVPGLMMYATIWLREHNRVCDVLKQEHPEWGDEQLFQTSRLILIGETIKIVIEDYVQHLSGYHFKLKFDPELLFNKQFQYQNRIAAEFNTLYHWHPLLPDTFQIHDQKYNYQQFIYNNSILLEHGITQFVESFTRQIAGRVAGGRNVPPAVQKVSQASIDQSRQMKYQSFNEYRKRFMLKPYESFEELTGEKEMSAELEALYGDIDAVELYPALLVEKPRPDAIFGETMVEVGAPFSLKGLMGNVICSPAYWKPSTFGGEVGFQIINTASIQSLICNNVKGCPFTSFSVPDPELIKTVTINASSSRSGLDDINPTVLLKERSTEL

Spodoptera litum larvae = settings: cited from earlier work
[6] = 510 mg/day, patients, cited from earlier work
CYP2C8 = CYP2C8 (Homo sapiens, UniProt P10632); settings: cited from earlier work
CYP2C8, sequence (P10632 whole entry): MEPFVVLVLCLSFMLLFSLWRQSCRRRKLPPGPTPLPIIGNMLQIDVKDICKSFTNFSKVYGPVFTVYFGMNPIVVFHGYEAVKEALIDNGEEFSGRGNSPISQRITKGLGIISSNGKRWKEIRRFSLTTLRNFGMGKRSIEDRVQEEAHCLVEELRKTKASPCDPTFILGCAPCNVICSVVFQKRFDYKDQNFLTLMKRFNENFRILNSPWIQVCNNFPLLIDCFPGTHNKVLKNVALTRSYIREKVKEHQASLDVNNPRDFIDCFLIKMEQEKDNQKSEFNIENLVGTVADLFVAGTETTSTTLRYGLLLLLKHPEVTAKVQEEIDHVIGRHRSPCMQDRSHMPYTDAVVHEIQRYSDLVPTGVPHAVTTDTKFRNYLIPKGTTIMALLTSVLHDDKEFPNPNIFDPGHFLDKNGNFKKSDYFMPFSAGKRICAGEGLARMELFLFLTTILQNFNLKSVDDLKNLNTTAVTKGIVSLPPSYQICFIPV

CYP2C9 = CYP2C9 (Homo sapiens, UniProt P11712); settings: cited from earlier work
CYP2C9, sequence (P11712 whole entry, species assumed): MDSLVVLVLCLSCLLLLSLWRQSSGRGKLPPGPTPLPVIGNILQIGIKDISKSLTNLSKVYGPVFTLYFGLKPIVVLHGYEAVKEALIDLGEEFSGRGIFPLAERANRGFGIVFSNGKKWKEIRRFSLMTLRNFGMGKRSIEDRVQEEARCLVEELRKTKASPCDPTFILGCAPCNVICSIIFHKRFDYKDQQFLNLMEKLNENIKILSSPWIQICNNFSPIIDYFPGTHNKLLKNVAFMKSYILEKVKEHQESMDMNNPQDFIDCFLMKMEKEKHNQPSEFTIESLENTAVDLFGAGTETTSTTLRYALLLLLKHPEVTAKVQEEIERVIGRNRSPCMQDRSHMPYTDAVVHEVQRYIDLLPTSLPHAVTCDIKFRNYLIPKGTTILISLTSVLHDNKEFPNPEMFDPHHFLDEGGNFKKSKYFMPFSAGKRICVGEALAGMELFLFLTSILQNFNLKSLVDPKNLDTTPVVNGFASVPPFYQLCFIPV

CYP2C19 = CYP2C19 (Homo sapiens, UniProt P33261); settings: cited from earlier work
CYP2C19, sequence (P33261 whole entry, species assumed): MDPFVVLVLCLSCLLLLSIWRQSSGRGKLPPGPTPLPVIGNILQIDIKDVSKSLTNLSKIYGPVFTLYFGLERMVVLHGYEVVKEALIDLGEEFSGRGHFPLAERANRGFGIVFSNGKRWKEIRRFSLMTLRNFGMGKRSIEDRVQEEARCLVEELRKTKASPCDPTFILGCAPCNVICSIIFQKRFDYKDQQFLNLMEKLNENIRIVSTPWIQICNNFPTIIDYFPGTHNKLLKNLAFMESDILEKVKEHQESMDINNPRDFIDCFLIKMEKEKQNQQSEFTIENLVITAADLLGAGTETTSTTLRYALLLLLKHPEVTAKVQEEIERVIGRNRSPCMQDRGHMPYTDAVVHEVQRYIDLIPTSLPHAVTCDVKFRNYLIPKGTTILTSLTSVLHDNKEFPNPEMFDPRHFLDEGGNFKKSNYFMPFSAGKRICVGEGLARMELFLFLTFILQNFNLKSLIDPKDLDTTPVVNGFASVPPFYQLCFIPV

[7] = tested on: ProDH (proline dehydrogenase); settings: competitive; plants; cited from earlier work
SIRT1 = SIRT1 (Homo sapiens, UniProt Q96EB6); settings: cited from earlier work
SIRT1, sequence (Q96EB6 whole entry, species assumed): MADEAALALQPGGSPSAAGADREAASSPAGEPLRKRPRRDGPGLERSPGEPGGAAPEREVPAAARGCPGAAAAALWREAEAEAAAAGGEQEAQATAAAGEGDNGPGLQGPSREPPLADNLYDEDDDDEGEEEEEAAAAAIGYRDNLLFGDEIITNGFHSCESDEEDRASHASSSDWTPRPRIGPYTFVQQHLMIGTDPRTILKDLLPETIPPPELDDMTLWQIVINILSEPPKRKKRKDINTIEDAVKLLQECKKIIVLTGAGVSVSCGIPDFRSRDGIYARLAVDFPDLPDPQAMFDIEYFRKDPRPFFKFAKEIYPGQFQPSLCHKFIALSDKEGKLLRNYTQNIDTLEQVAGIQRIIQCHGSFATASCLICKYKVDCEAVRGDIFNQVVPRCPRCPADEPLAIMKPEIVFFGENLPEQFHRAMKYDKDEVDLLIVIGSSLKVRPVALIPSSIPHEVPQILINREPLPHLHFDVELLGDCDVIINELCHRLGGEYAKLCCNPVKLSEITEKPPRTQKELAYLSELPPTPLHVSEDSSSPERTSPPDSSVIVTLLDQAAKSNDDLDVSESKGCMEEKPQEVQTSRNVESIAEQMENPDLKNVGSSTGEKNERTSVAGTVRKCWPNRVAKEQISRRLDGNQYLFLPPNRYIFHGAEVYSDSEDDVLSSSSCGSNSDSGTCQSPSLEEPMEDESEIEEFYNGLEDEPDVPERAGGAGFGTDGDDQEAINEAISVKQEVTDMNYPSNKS

[8] = target: N-methyl-D-aspartate receptors (NMDARs); settings: glycine-binding site; read-out: KB, competitive antagonist of NMDARs; cited from earlier work
[9] = tested on: most gram-positive and some gram-negative bacteria; settings: cited from earlier work
[10] = tested on: mouse skin carcinogenesis; settings: cited from earlier work
carrageenan = settings: 25, 50 or 100 mg/kg, i.p., immediately and 2 h after carrageenan; cited from earlier work
[11] = tested on: fever induced by lipopolysaccharide (LPS); settings: 50 or 100 mg/kg, i.p., 0 and 2 h; rats; cited from earlier work
neuroblastoma cells = settings: cited from earlier work
THP1 HMGB1 Lucia cells = experiment: Pyroptosis inhibition luciferase assay, LPS + nigericin, HMGB1 reporter (QUANTI-Luc); format: cell-based; settings: compound alone; 1 μg/ml LPS 3 h, then 10 μM nigericin 3 h
[12] = tested on: fibroblasts, peripheral blood mononuclear cells (PBMCs), myoblasts; experiment: Reversal of aging (predicted age) in cultured young/old cells contacted with disulfiram plus potentiating ingredients; format: cell-based; settings: concentrations 0.000005 to 80 μM; potentiating ingredient as high as 25 μM

## N=C(N)NCCC[C@H](N)C(=O)O [L-Arginine]
Severe sepsis
  Resolution of shock at 72 hours, share of patients: 72 hours is achieved by 40% and 24% of the patients in the L-Arginine
Brain blood flow
  hyperemia: minute period) amplifies and sustains the hyperemia (38%) and increases

## Rebaudioside A
[1]
  genotoxic effects, mouse micronucleus test: rebaudioside A do not cause any genotoxic effects at any of the doses
[2]
  genotoxic effects, unscheduled DNA synthesis test: rebaudioside A do not cause any genotoxic effects at any of the doses

## OC[C@H]1O[C@@H]2O[C@H]3[C@H](O)[C@@H](O)[C@@H](O[C@H]4[C@H](O)[C@@H](O)[C@@H](O[C@H]5[C@H](O)[C@@H](O)[C@@H](O[C@H]6[C@H](O)[C@@H](O)[C@@H](O[C@H]7[C@H](O)[C@@H](O)[C@@H](O[C@H]8[C@H](O)[C@@H](O)[C@@H](O[C@H]1[C@H](O)[C@H]2O)O[C@@H]8CO)O[C@@H]7CO)O[C@@H]6CO)O[C@@H]5CO)O[C@@H]4CO)O[C@@H]3CO [β-Cyclodextrin]
Influenza virus H1N1
  anti-influenza virus activity: Cyclodextrin has anti-influenza virus H1N1 activities.

## CC1CCC(C(C)C)C(O)C1 (single isomer, unassigned; (-)) [(−)-Menthol]
[3]
  binding and activation of TRPM8: (−)-Menthol is a key component of peppermint oil that binds and activates

## CCCCC1OC(=O)c2ccccc21 (centres unmarked) [Butylphthalide]
SAMP8 mice
  spatial learning and memory ability: 2 months significantly improved spatial learning and memory ability.

## CCCCCCCCC(=O)NCc1ccc(O)c(OC)c1 [Nonivamide]
[4]
  4d-EC50: 5.1 mg/L in static toxicity tests.

## O=C(O)c1ccccc1O [Salicylic acid]
[5]
  inhibition of COX-2 activity: Salicylic acid (2-Hydroxybenzoic acid) inhibits cyclo-oxygenase-2

## CCCC=C1OC(=O)c2ccccc21 [3-Butylidenephthalide]
Spodoptera litum larvae
  LC50, larvicidal activity: activity (LC50 of 1.56 mg/g for Spodoptera litum larvae).

## C[N+](C)(C)C[C@H](O)CC(=O)[O-] [L-Carnitine]
[6]; versus placebo-treated periods
  total time for dozing off during the daytime: L-carnitine (Levocarnitine) treatment significantly improved the total
[6]
  serum acylcarnitine levels: L-carnitine (Levocarnitine) efficiently increased serum acylcarnitine
  serum triglycerides concentration: levels, and reduced serum triglycerides concentration.

## C[C@@H]1CC[C@H]2C(C)(C)[C@H]3C[C@@]12CC[C@@]3(C)O [Cedrol]
CYP2C8
  inhibitory effect on CYP2C8: weak
CYP2C9
  inhibitory effect on CYP2C9: weak
CYP2C19
  inhibitory effect on CYP2C19: weak

## D-(-)-Lactic acid
[7]
  inhibition of ProDH: inhibitor of ProDH (proline dehydrogenase) in plants.

## NC(=O)c1cccnc1 [Nicotinamide]
SIRT1
  inhibition of SIRT1: reactions. Nicotinamide is an inhibitor of SIRT1.

## N[C@@H](Cc1ccccc1)C(=O)O [L-Phenylalanine]
[8]
  Kb: 573 µM

## O=C(O)c1ccc(O)cc1 [4-Hydroxybenzoic acid]
[9]
  IC50, inhibition of most gram-positive and some gram-negative bacteria: IC50 of 160 μg/mL.

## CCCCCCCC(=O)CCc1ccc(O)c(OC)c1 [Paradol]
[10]
  inhibition of tumor promotion: Zingiberaceae plants. Paradol is an effective inhibitor of tumor promotion

## Cc1cc2nc3c(=O)[nH]c(=O)nc-3n(C[C@H](O)[C@H](O)[C@H](O)CO)c2cc1C [Riboflavin]
carrageenan
  antiedema and antinociceptive effects: induced antiedema and antinociceptive effects. The antinociceptive effect
[11]
  effect on LPS-induced fever: inhibited the fever induced by lipopolysaccharide (LPS) in rats.

## COc1cc(CCC(C)=O)ccc1O [Zingerone]
Neuroblastoma cells
  growth of neuroblastoma cells: agent, and inhibits the growth of neuroblastoma cells.

## CC(C)(C)c1cc(O)ccc1O [TBHQ, tert-Butylhydroquinone]
THP1 HMGB1 Lucia cells
  pyroptosis inhibition (HMGB1 luciferase reporter in supernatant): no effect on pyroptosis inhibition or a clear IC50
[12]
  ability in combination with disulfiram to reverse aging in the cells: identified as a potentiating ingredient
